Laboratory results from PubChem BioAssay (NCI).
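Assay format: 96-well plates, 48-hour exposure. TGI marks complete inhibition of growth.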 Where a SMILES comes first, the peptide text is derived from it. [ ]: non-standard residue; d: D form. The star is where a group is joined. Chg = N[CH](C(=O)O)C1CCCCC1; Cbz = O=C(OCc1ccccc1)*; OBn = c1ccc(CO*)cc1

Test system: HOP-92 NSCLC
Test: DTP human tumour cell line panel, 48 h

Q: How did the TGI turn out when `Nc1c(N2CCCCC2)c(=O)nc2[nH]/c(=C\c3ccco3)c(=O)n12` was run?
A: > 100 µM

Q: With `Cc1[nH]n(-c2ncc(C#N)c(=O)[nH]2)c(=O)c1CCO` as the compound, how does the TGI read?
A: > 100 µM

Test system: HS 578T breast
Test: DTP human tumour cell line panel, 48 h

Q: With `COC(=O)C(NC(=O)C(CC(=O)OCc1ccccc1)NC(=O)OCc1ccccc1)C1CCCCC1` (configuration not stated) (Cbz-Asp(OBn)-[Chg]-OMe; configuration not given here) as the compound, how does the TGI read?
A: 81.3 µM

Q: Which TGI does the source give for `OC[C@H]1C[C@@H]2Cc3ccccc3N2N1` here?
A: > 100 µM

Q: With `COP(=O)(OC)/C(=C\C1=CN(C(c2ccccc2)(c2ccccc2)c2ccccc2)CN1)NC=O` as the compound, how does the TGI read?
A: 51.2 µM

Q: Which TGI does the source give for `Nc1c(N2CCCCC2)c(=O)nc2[nH]/c(=C\c3ccco3)c(=O)n12` here?
A: > 100 µM

Q: How did the TGI turn out when `Cc1[nH]n(-c2ncc(C#N)c(=O)[nH]2)c(=O)c1CCO` was run?
A: > 100 µM

Test system: HT29 colon
Test: DTP human tumour cell line panel, 48 h

Q: How did the TGI turn out when `COC(=O)C(NC(=O)C(CC(=O)OCc1ccccc1)NC(=O)OCc1ccccc1)C1CCCCC1` (configuration not stated) (Cbz-Asp(OBn)-[Chg]-OMe; configuration not given here) was run?
A: > 100 µM

Q: `OC[C@H]1C[C@@H]2Cc3ccccc3N2N1` was tested. Which TGI did it give?
A: > 100 µM

Q: How did the TGI turn out when `COP(=O)(OC)/C(=C\C1=CN(C(c2ccccc2)(c2ccccc2)c2ccccc2)CN1)NC=O` was run?
A: 28.2 µM

Q: With `Nc1c(N2CCCCC2)c(=O)nc2[nH]/c(=C\c3ccco3)c(=O)n12` as the compound, how does the TGI read?
A: > 100 µM

Q: How did the TGI turn out when `Cc1[nH]n(-c2ncc(C#N)c(=O)[nH]2)c(=O)c1CCO` was run?
A: > 100 µM

Test system: IGROV1 ovarian
Test: DTP human tumour cell line panel, 48 h

Q: How did the TGI turn out when `COC(=O)C(NC(=O)C(CC(=O)OCc1ccccc1)NC(=O)OCc1ccccc1)C1CCCCC1` (configuration not stated) (Cbz-Asp(OBn)-[Chg]-OMe; configuration not given here) was run?
A: > 100 µM

Q: With `OC[C@H]1C[C@@H]2Cc3ccccc3N2N1` as the compound, how does the TGI read?
A: > 100 µM

Q: How did the TGI turn out when `COP(=O)(OC)/C(=C\C1=CN(C(c2ccccc2)(c2ccccc2)c2ccccc2)CN1)NC=O` was run?
A: 49.2 µM

Q: For `Nc1c(N2CCCCC2)c(=O)nc2[nH]/c(=C\c3ccco3)c(=O)n12`, which TGI is on record?
A: > 100 µM

Q: Which TGI does the source give for `Cc1[nH]n(-c2ncc(C#N)c(=O)[nH]2)c(=O)c1CCO` here?
A: > 100 µM

Test system: K-562 leukemia
Test: DTP human tumour cell line panel, 48 h

Q: Which TGI does the source give for `COC(=O)C(NC(=O)C(CC(=O)OCc1ccccc1)NC(=O)OCc1ccccc1)C1CCCCC1` (configuration not stated) (Cbz-Asp(OBn)-[Chg]-OMe; configuration not given here) here?
A: > 100 µM

Q: For `OC[C@H]1C[C@@H]2Cc3ccccc3N2N1`, which TGI is on record?
A: > 100 µM

Q: Which TGI does the source give for `COP(=O)(OC)/C(=C\C1=CN(C(c2ccccc2)(c2ccccc2)c2ccccc2)CN1)NC=O` here?
A: > 100 µM

Q: With `Nc1c(N2CCCCC2)c(=O)nc2[nH]/c(=C\c3ccco3)c(=O)n12` as the compound, how does the TGI read?
A: > 100 µM

Q: How did the TGI turn out when `Cc1[nH]n(-c2ncc(C#N)c(=O)[nH]2)c(=O)c1CCO` was run?
A: > 100 µM

Test system: KM12 colon
Test: DTP human tumour cell line panel, 48 h

Q: How did the TGI turn out when `COC(=O)C(NC(=O)C(CC(=O)OCc1ccccc1)NC(=O)OCc1ccccc1)C1CCCCC1` (configuration not stated) (Cbz-Asp(OBn)-[Chg]-OMe; configuration not given here) was run?
A: > 100 µM

Q: With `OC[C@H]1C[C@@H]2Cc3ccccc3N2N1` as the compound, how does the TGI read?
A: > 100 µM

Q: For `Nc1c(N2CCCCC2)c(=O)nc2[nH]/c(=C\c3ccco3)c(=O)n12`, which TGI is on record?
A: > 100 µM

Q: `Cc1[nH]n(-c2ncc(C#N)c(=O)[nH]2)c(=O)c1CCO` was tested. Which TGI did it give?
A: > 100 µM

Test system: LOX IMVI melanoma
Test: DTP human tumour cell line panel, 48 h

Q: Which TGI does the source give for `COC(=O)C(NC(=O)C(CC(=O)OCc1ccccc1)NC(=O)OCc1ccccc1)C1CCCCC1` (configuration not stated) (Cbz-Asp(OBn)-[Chg]-OMe; configuration not given here) here?
A: > 100 µM

Q: Which TGI does the source give for `OC[C@H]1C[C@@H]2Cc3ccccc3N2N1` here?
A: > 100 µM

Q: `COP(=O)(OC)/C(=C\C1=CN(C(c2ccccc2)(c2ccccc2)c2ccccc2)CN1)NC=O` was tested. Which TGI did it give?
A: 26.3 µM

Q: With `Nc1c(N2CCCCC2)c(=O)nc2[nH]/c(=C\c3ccco3)c(=O)n12` as the compound, how does the TGI read?
A: > 100 µM

Q: For `Cc1[nH]n(-c2ncc(C#N)c(=O)[nH]2)c(=O)c1CCO`, which TGI is on record?
A: > 100 µM

Test system: M14 melanoma
Test: DTP human tumour cell line panel, 48 h

Q: With `COC(=O)C(NC(=O)C(CC(=O)OCc1ccccc1)NC(=O)OCc1ccccc1)C1CCCCC1` (configuration not stated) (Cbz-Asp(OBn)-[Chg]-OMe; configuration not given here) as the compound, how does the TGI read?
A: > 100 µM

Q: For `OC[C@H]1C[C@@H]2Cc3ccccc3N2N1`, which TGI is on record?
A: > 100 µM

Q: `COP(=O)(OC)/C(=C\C1=CN(C(c2ccccc2)(c2ccccc2)c2ccccc2)CN1)NC=O` was tested. Which TGI did it give?
A: 43.9 µM

Q: `Nc1c(N2CCCCC2)c(=O)nc2[nH]/c(=C\c3ccco3)c(=O)n12` was tested. Which TGI did it give?
A: > 100 µM

Q: For `Cc1[nH]n(-c2ncc(C#N)c(=O)[nH]2)c(=O)c1CCO`, which TGI is on record?
A: > 100 µM

Test system: MALME-3M melanoma
Test: DTP human tumour cell line panel, 48 h

Q: With `COC(=O)C(NC(=O)C(CC(=O)OCc1ccccc1)NC(=O)OCc1ccccc1)C1CCCCC1` (configuration not stated) (Cbz-Asp(OBn)-[Chg]-OMe; configuration not given here) as the compound, how does the TGI read?
A: > 100 µM

Q: With `OC[C@H]1C[C@@H]2Cc3ccccc3N2N1` as the compound, how does the TGI read?
A: > 100 µM

Q: How did the TGI turn out when `Nc1c(N2CCCCC2)c(=O)nc2[nH]/c(=C\c3ccco3)c(=O)n12` was run?
A: > 100 µM

Q: With `Cc1[nH]n(-c2ncc(C#N)c(=O)[nH]2)c(=O)c1CCO` as the compound, how does the TGI read?
A: > 100 µM

Test system: MCF7 breast
Test: DTP human tumour cell line panel, 48 h

Q: For `COC(=O)C(NC(=O)C(CC(=O)OCc1ccccc1)NC(=O)OCc1ccccc1)C1CCCCC1` (configuration not stated) (Cbz-Asp(OBn)-[Chg]-OMe; configuration not given here), which TGI is on record?
A: > 100 µM

Q: For `Cc1[nH]n(-c2ncc(C#N)c(=O)[nH]2)c(=O)c1CCO`, which TGI is on record?
A: > 100 µM

Test system: MDA-MB-231 breast
Test: DTP human tumour cell line panel, 48 h

Q: With `COC(=O)C(NC(=O)C(CC(=O)OCc1ccccc1)NC(=O)OCc1ccccc1)C1CCCCC1` (configuration not stated) (Cbz-Asp(OBn)-[Chg]-OMe; configuration not given here) as the compound, how does the TGI read?
A: > 100 µM

Q: Which TGI does the source give for `OC[C@H]1C[C@@H]2Cc3ccccc3N2N1` here?
A: > 100 µM

Q: With `COP(=O)(OC)/C(=C\C1=CN(C(c2ccccc2)(c2ccccc2)c2ccccc2)CN1)NC=O` as the compound, how does the TGI read?
A: 33.9 µM

Q: For `Nc1c(N2CCCCC2)c(=O)nc2[nH]/c(=C\c3ccco3)c(=O)n12`, which TGI is on record?
A: > 100 µM

Q: `Cc1[nH]n(-c2ncc(C#N)c(=O)[nH]2)c(=O)c1CCO` was tested. Which TGI did it give?
A: > 100 µM

Test system: MDA-MB-435
Test: DTP human tumour cell line panel, 48 h

Q: For `COC(=O)C(NC(=O)C(CC(=O)OCc1ccccc1)NC(=O)OCc1ccccc1)C1CCCCC1` (configuration not stated) (Cbz-Asp(OBn)-[Chg]-OMe; configuration not given here), which TGI is on record?
A: > 100 µM

Q: With `OC[C@H]1C[C@@H]2Cc3ccccc3N2N1` as the compound, how does the TGI read?
A: > 100 µM

Q: For `COP(=O)(OC)/C(=C\C1=CN(C(c2ccccc2)(c2ccccc2)c2ccccc2)CN1)NC=O`, which TGI is on record?
A: 23.1 µM

Q: How did the TGI turn out when `Nc1c(N2CCCCC2)c(=O)nc2[nH]/c(=C\c3ccco3)c(=O)n12` was run?
A: > 100 µM

Q: For `Cc1[nH]n(-c2ncc(C#N)c(=O)[nH]2)c(=O)c1CCO`, which TGI is on record?
A: > 100 µM

Test system: MDA-N
Test: DTP human tumour cell line panel, 48 h

Q: For `COC(=O)C(NC(=O)C(CC(=O)OCc1ccccc1)NC(=O)OCc1ccccc1)C1CCCCC1` (configuration not stated) (Cbz-Asp(OBn)-[Chg]-OMe; configuration not given here), which TGI is on record?
A: > 100 µM

Q: With `OC[C@H]1C[C@@H]2Cc3ccccc3N2N1` as the compound, how does the TGI read?
A: > 100 µM

Q: Which TGI does the source give for `COP(=O)(OC)/C(=C\C1=CN(C(c2ccccc2)(c2ccccc2)c2ccccc2)CN1)NC=O` here?
A: 28.4 µM

Q: For `Nc1c(N2CCCCC2)c(=O)nc2[nH]/c(=C\c3ccco3)c(=O)n12`, which TGI is on record?
A: > 100 µM

Q: Which TGI does the source give for `Cc1[nH]n(-c2ncc(C#N)c(=O)[nH]2)c(=O)c1CCO` here?
A: > 100 µM

Test system: MOLT-4 leukemia
Test: DTP human tumour cell line panel, 48 h

Q: Which TGI does the source give for `COC(=O)C(NC(=O)C(CC(=O)OCc1ccccc1)NC(=O)OCc1ccccc1)C1CCCCC1` (configuration not stated) (Cbz-Asp(OBn)-[Chg]-OMe; configuration not given here) here?
A: > 100 µM

Q: With `OC[C@H]1C[C@@H]2Cc3ccccc3N2N1` as the compound, how does the TGI read?
A: > 100 µM

Q: How did the TGI turn out when `COP(=O)(OC)/C(=C\C1=CN(C(c2ccccc2)(c2ccccc2)c2ccccc2)CN1)NC=O` was run?
A: 30.6 µM

Q: `Nc1c(N2CCCCC2)c(=O)nc2[nH]/c(=C\c3ccco3)c(=O)n12` was tested. Which TGI did it give?
A: > 100 µM

Q: With `Cc1[nH]n(-c2ncc(C#N)c(=O)[nH]2)c(=O)c1CCO` as the compound, how does the TGI read?
A: > 100 µM

Test system: NCI-H226 lung
Test: DTP human tumour cell line panel, 48 h

Q: With `COC(=O)C(NC(=O)C(CC(=O)OCc1ccccc1)NC(=O)OCc1ccccc1)C1CCCCC1` (configuration not stated) (Cbz-Asp(OBn)-[Chg]-OMe; configuration not given here) as the compound, how does the TGI read?
A: > 100 µM

Q: With `OC[C@H]1C[C@@H]2Cc3ccccc3N2N1` as the compound, how does the TGI read?
A: > 100 µM

Q: How did the TGI turn out when `COP(=O)(OC)/C(=C\C1=CN(C(c2ccccc2)(c2ccccc2)c2ccccc2)CN1)NC=O` was run?
A: 39.5 µM

Q: `Nc1c(N2CCCCC2)c(=O)nc2[nH]/c(=C\c3ccco3)c(=O)n12` was tested. Which TGI did it give?
A: > 100 µM

Q: `Cc1[nH]n(-c2ncc(C#N)c(=O)[nH]2)c(=O)c1CCO` was tested. Which TGI did it give?
A: > 100 µM
